According to patent publication US9718790B2, “Triazine derivative and pharmaceutical composition having an analgesic activity comprising the same” (SHIONOGI & CO., LTD., priority 2010, dated 2017):

molecular target: human P2X3 receptor (Homo sapiens (Human), UniProt P56373); experiment: Evaluation of human P2X3 receptor inhibitory activity (Fluo-3 calcium fluorescence, FDSS 3000, ATP stimulation); format: cell-based; settings: C6BU-1 cells stably expressing human P2X3 receptor;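 note: stimulus was 50 nM ATP with fluorescence followed for 3 min, and the response per well was peak post-ATP fluorescence divided by the reading at measurement start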
Sequence (P56373 whole entry): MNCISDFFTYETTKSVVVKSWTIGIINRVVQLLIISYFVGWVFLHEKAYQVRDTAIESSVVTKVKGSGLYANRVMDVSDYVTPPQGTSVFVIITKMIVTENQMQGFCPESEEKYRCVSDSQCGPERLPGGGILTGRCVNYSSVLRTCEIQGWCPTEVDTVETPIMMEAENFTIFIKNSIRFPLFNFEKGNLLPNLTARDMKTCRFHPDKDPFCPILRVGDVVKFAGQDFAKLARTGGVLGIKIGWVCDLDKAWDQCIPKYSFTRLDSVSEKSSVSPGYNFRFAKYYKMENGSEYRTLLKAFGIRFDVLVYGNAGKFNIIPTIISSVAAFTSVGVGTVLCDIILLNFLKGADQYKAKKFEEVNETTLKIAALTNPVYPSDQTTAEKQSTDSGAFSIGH

| Structure (SMILES) | IC50 |
| --- | --- |
| CC(C)Oc1ccc(/N=c2\[nH]c(=O)n(CC(=O)NN)c(=O)n2Cc2ccc(Cl)cc2)cc1F [Compound I-0635] | 0.019 µM |
| Cc1[nH]c2ccc(/N=c3\[nH]c(=O)n(C[C@H]4COC(C)(C)O4)c(=O)n3Cc3ccc(Cl)cc3)cc2c1C [Compound I-2039] | 0.009 µM |
| CCCc1ccc(/N=c2\[nH]c(=O)n(CCC(=O)O)c(=O)n2Cc2ccc(Cl)cc2)cc1C [Compound I-1253] | 0.281 µM |
| COC(=O)[C@@H](C)Cn1c(=O)[nH]/c(=N\c2ccc(CC(C)C)c(F)c2)n(Cc2ccc(C)cc2)c1=O [Compound I-1252] | 0.023 µM |
| CCCc1ccc(/N=c2\[nH]c(=O)n(C[C@H](C)C(=O)O)c(=O)n2Cc2ccc(Cl)cc2)cc1OC [Compound I-1354] | 0.139 µM |
| Cc1nc2ccc(/N=c3\[nH]c(=O)n(C[C@H](C)C(=O)O)c(=O)n3Cc3ccc(Cl)cc3)cc2s1 [Compound I-1349] | 0.015 µM |
| O=c1ccccn1-c1ccc(/N=c2\[nH]c(=O)n(CCO)c(=O)n2Cc2ccc(Cl)cc2)cc1 [Compound I-2044] | 0.125 µM |
| O=C(O)CCn1c(=O)[nH]/c(=N\c2ccc(OC3CCC3)cc2)n(Cc2ccc(Cl)cc2)c1=O [Compound I-1286] | 0.034 µM |
| COC(=O)[C@@H](C)Cn1c(=O)[nH]/c(=N\c2ccc(OC(C)C)c(Cl)c2)n(Cc2ccc(C)cc2)c1=O [Compound I-0593] | 0.004 µM |
| CCOC(=O)/C(Cn1c(=O)[nH]/c(=N\c2ccc(OC(C)C)c(F)c2)n(Cc2ccc(Cl)cc2)c1=O)=N/OC [Compound I-0735, 1-(4-chlorobenzyl)-6-(3-fluoro-4-isopropoxyphenylimino)-3-(2-ethoxycarbonyl-2-methoxyiminoethyl)-1,3,5-triazinane-2,4-dion] | 0.007 µM |
| NC(=O)CCn1c(=O)[nH]/c(=N\c2ccc(OCC3CC3)cc2)n(Cc2ccc(Cl)cc2)c1=O [Compound I-1914] | 0.046 µM |
| CCOc1ccc(/N=c2\[nH]c(=O)n(C[C@H](C)C(=O)O)c(=O)n2Cc2ccc(C)cc2)cc1F [Compound I-0610] | 0.035 µM |
| CCn1c(=O)[nH]/c(=N\c2ccc(-n3cc(C(=O)OC)ccc3=O)cc2)n(Cc2ccc(Cl)cc2)c1=O [Compound I-2033] | 0.622 µM |
| Cc1ccc(Cn2c(=O)n(C[C@H](C)C(=O)O)c(=O)[nH]/c2=N\c2ccc(Oc3cc(C)nc(C)c3)cc2)cc1 [Compound I-1260] | 0.031 µM |
| COC(=O)[C@@H](C)[C@@H](C)n1c(=O)[nH]/c(=N\c2ccc(Oc3ccc(C)nc3)cc2)n(Cc2ccc(Cl)cc2)c1=O [Compound I-1376] | 0.015 µM |
| CC1Cc2cc(/N=c3\[nH]c(=O)n(C[C@H](C)C(=O)O)c(=O)n3Cc3ccc(Cl)cc3)ccc2O1 (stereo partly shown) [Compound I-1466] | 0.121 µM |
| COCc1ccc(/N=c2\[nH]c(=O)n(C[C@H](C)C(=O)O)c(=O)n2Cc2ccc(Cl)cc2)cc1 [Compound I-0686] | 0.605 µM |

| Structure (SMILES) | IC50 |
| --- | --- |
| CCCn1c(=O)[nH]/c(=N\c2ccc(Oc3ccc(C(=O)O)nc3)cc2)n(Cc2ccc(Cl)cc2)c1=O [Compound I-2161] | 0.014 µM |
| COC(=O)[C@@H](C)Cn1c(=O)[nH]/c(=N\c2ccc(OC(C)C)c(Cl)c2)n(Cc2ccccc2)c1=O [Compound I-0763] | 0.08 µM |
| CC(C)Oc1ccc(/N=c2\[nH]c(=O)n(CCCS(=O)(=O)O)c(=O)n2Cc2ccc(Cl)cc2)cc1F [Compound I-0645] | 0.102 µM |
| CCOC(=O)CCn1c(=O)[nH]/c(=N\c2ccc(OC3CCC3)cc2)n(Cc2ccc(C)cc2)c1=O [Compound I-1282] | 0.004 µM |
| Cc1ccc(Cn2c(=O)n(CC(C)(C)C(=O)O)c(=O)[nH]/c2=N\c2ccc(CC(C)C)c(Cl)c2)cc1 [Compound I-1462] | 0.003 µM |
| CC(C)=Cc1ccc(/N=c2\[nH]c(=O)n(C[C@H](C)C(=O)O)c(=O)n2Cc2ccc(C)cc2)cn1 [Compound I-1304] | 0.574 µM |
| COc1cc(/N=c2\[nH]c(=O)n(CCC(=O)O)c(=O)n2Cc2ccc(C)cc2)ccc1CC(C)C [Compound I-1362] | 0.054 µM |
| C[C@@H](Cn1c(=O)[nH]/c(=N\c2ccc3c(c2)COCO3)n(Cc2ccc(Cl)cc2)c1=O)C(=O)O [Compound I-0746] | 0.14 µM |
| COC(=O)[C@H](C)[C@H](C)n1c(=O)[nH]/c(=N\c2ccc(N3CCCCC3)cc2)n(Cc2ccc(Cl)cc2)c1=O [Compound I-1380] | 0.026 µM |
| Cc1ccc(Cn2c(=O)n(CCC(=O)O)c(=O)[nH]/c2=N\c2ccc(OC(C)C)c(C3CC3)c2)cc1 [Compound I-1303] | 0.066 µM |
| Cc1cc(/N=c2\[nH]c(=O)n(C[C@H](C)CC(=O)O)c(=O)n2Cc2ccc(Cl)cc2)ccc1OC(C)C [Compound I-0765] | 0.04 µM |
| CCn1c(=O)[nH]/c(=N\c2ccc(Oc3nccc(O)n3)cc2)n(Cc2ccc(Cl)cc2)c1=O [Compound I-2108] | 0.026 µM |
| COC(=O)[C@@H](C)[C@@H](C)n1c(=O)[nH]/c(=N\c2ccc(N3CCCCC3)cc2)n(Cc2ccc(Cl)cc2)c1=O [Compound I-1454] | 0.023 µM |
| Cc1cc(/N=c2\[nH]c(=O)n(CC3(C(=O)NCCO)CC3)c(=O)n2Cc2ccc(Cl)cc2)ccc1OC(C)C [Compound I-0704] | 0.023 µM |
| CCn1c(=O)[nH]/c(=N\c2ccc(Oc3ccnc(C(=O)NC)c3)cc2)n(Cc2ccc(F)cc2)c1=O [Compound I-2110] | 0.012 µM |
| Cc1cc(/N=c2\[nH]c(=O)n(C[C@H](C)C(=O)NCCO)c(=O)n2Cc2ccc(Cl)cc2)ccc1OC(C)C [Compound I-0723] | 0.024 µM |

same assay, conditions: C6BU-1 cells stably expressing human P2X3 receptor, Fluo-3 fluorescence, FDSS 3000

| Structure (SMILES) | IC50 |
| --- | --- |
| CC[C@@H](C)Oc1ccc(/N=c2\[nH]c(=O)n(CCCO)c(=O)n2Cc2ccc(Cl)cc2)cc1Cl [Compound I-1623] | 0.007 µM |
| COC(=O)[C@@H](C)Cn1c(=O)[nH]/c(=N\c2ccc(Cl)c(Cl)c2)n(Cc2ccc(C)cc2)c1=O [Compound I-0998] | 0.024 µM |
| CCOc1ccc(/N=c2\[nH]c(=O)n(C[C@H]3COC(C)(C)O3)c(=O)n2Cc2ccc(Cl)cc2)cc1Cl [Compound I-1887] | 0.003 µM |
| CC(C)Oc1ccc(/N=c2\[nH]c(=O)n(Cc3cc(O)no3)c(=O)n2Cc2ccc(Cl)cc2)cc1F [Compound I-1767] | 0.055 µM |
| CC[C@@H](C)Oc1ccc(/N=c2\[nH]c(=O)n(C[C@H](C)C(=O)OC)c(=O)n2Cc2ccc(C)cc2)cc1Cl [Compound I-1015] | 0.007 µM |
| Cc1ccc(Cn2c(=O)n(CC3(C(=O)O)CC3)c(=O)[nH]/c2=N\c2ccc(OC(C)C)c(C)c2)cc1 [Compound I-0935] | 0.038 µM |
| C[C@@H](Cn1c(=O)[nH]/c(=N\c2ccc(OC(F)F)cc2)n(Cc2ccc(Cl)cc2)c1=O)C(=O)O [Compound I-1162] | 0.179 µM |
| CC(C)Oc1ccc(/N=c2\[nH]c(=O)n(C[C@H](C)C(=O)O)c(=O)n2Cc2ccc(Cl)cc2)cc1C#N [Compound I-0960] | 0.07 µM |
| CC(=O)NCCCn1c(=O)[nH]/c(=N\c2ccc(CC(C)C)c(Cl)c2)n(Cc2ccc(Cl)cc2)c1=O [Compound I-1614] | 0.009 µM |
| Cc1ccc(Oc2ccc(/N=c3\[nH]c(=O)n(CCCO)c(=O)n3Cc3ccc(Cl)cc3)cc2)cn1 [Compound I-1597] | 0.004 µM |
| COc1ccc(COc2cc(Cn3c(=O)[nH]/c(=N\c4ccc(OC(C)C)c(F)c4)n(Cc4ccc(Cl)cc4)c3=O)on2)cc1 [Compound I-1764] | 0.035 µM |
| CCn1c(=O)[nH]/c(=N\c2ccc(Oc3cccc(C(=O)O)c3)cc2)n(Cc2ccc(Cl)cc2)c1=O [Compound I-1881] | 0.006 µM |
| CCc1oc2ccc(/N=c3\[nH]c(=O)n(CC(CO)CO)c(=O)n3Cc3ccc(Cl)cc3)cc2c1C [Compound I-1842] | 0.005 µM |
| CCc1nc2ccc(/N=c3\[nH]c(=O)n(CCCC(=O)O)c(=O)n3Cc3ccc(C)cc3)cc2s1 [Compound I-1631] | 0.008 µM |
| C[C@@H](C(=O)O)[C@H](C)n1c(=O)[nH]/c(=N\c2ccc3c(c2)OC(F)(F)C(F)(F)O3)n(Cc2ccc(Cl)cc2)c1=O [Compound I-1783] | 0.17 µM |
| CC(C)Oc1ccc(/N=c2\[nH]c(=O)n(CC3(CC(=O)O)CC3)c(=O)n2Cc2ccc(Cl)cc2)cc1Cl [Compound I-0981] | 0.01 µM |
| CCCOc1ccc(/N=c2\[nH]c(=O)n(CC3(C(=O)O)CC3)c(=O)n2Cc2ccc(Cl)cc2)cc1Cl [Compound I-0986] | 0.031 µM |

same assay, conditions: human P2X3 receptor, Test Example 1

| Structure (SMILES) | IC50 |
| --- | --- |
| CCc1oc2ccc(/N=c3\[nH]c(=O)n(CCC(=O)O)c(=O)n3Cc3ccc(C)cc3)cc2c1C [Compound I-1508] | 0.018 µM |
| CCn1c(=O)[nH]/c(=N\c2ccc(Oc3ncc(C(=O)OC)cn3)cc2)n(Cc2ccc(Cl)cc2)c1=O [Compound I-2322] | 0.006 µM |
| O=c1[nH]/c(=N\c2ccc(Oc3ncccc3F)cc2)n(Cc2ccc(Cl)cc2)c(=O)n1CC(CO)CO [Compound I-2706] | 0.006 µM |
| Cn1c(=O)[nH]/c(=N\c2ccc(Oc3cc(C(=O)O)ncn3)cc2)n(Cc2ccc(Cl)cc2)c1=O [Compound I-2447] | 0.01 µM |
| O=c1[nH]c(=O)n(Cc2ccc(Cl)cc2)/c(=N/c2ccc(Oc3cccc(F)n3)cc2)[nH]1 [Compound I-2503] | 0.039 µM |
| Cn1c(=O)[nH]/c(=N\c2ccc(Oc3cc(C(=O)O)ccn3)cc2)n(Cc2ccc(Cl)cc2)c1=O [Compound I-2391] | 0.029 µM |
| COc1cc(/N=c2\[nH]c(=O)n(C)c(=O)n2Cc2ccc(Cl)cc2)ccc1Oc1cccc(C(=O)O)n1 [Compound I-2424] | 0.02 µM |
| O=c1[nH]/c(=N\c2ccc(Oc3cnsn3)cc2)n(Cc2ccc(Cl)cc2)c(=O)n1CC(CO)CO [Compound I-2478] | 0.005 µM |
| Cc1nsc(Oc2ccc(/N=c3\[nH]c(=O)n(CCCO)c(=O)n3Cc3ccc(F)cc3)cc2)n1 [Compound I-2606] | 0.014 µM |
| C[C@@H](C(N)=O)n1c(=O)[nH]/c(=N\c2ccc(Oc3ccon3)cc2)n(Cc2ccc(Cl)cc2)c1=O [Compound I-2501] | 0.057 µM |
| CNC(=O)Cn1c(=O)[nH]/c(=N\c2ccc(Oc3ncns3)cc2)n(Cc2ccc(Cl)cc2)c1=O [Compound I-2673] | 0.007 µM |
| NC(=O)Cn1c(=O)[nH]/c(=N\c2ccc(Oc3ccon3)c(F)c2)n(Cc2ccc(Cl)cc2)c1=O [Compound I-2586] | 0.007 µM |
| COC(=O)[C@@H](C)Cn1c(=O)[nH]/c(=N\c2cc(Cl)cc(Cl)c2)n(Cc2ccc(C)cc2)c1=O [Compound I-1497] | 0.619 µM |
| CCn1c(=O)[nH]/c(=N\c2ccc(Oc3ccc(NC(C)=O)nc3)cc2)n(Cc2ccc(Cl)cc2)c1=O [Compound I-2241] | 0.001 µM |
